Measurements reported in publication PMC5471521, “Novel selective β1-adrenoceptor antagonists for concomitant cardiovascular and respiratory disease” (The FASEB Journal, 2017).

Legend:
[1] = Metabolic stability, human hepatocytes; assay type: in vitro ADME; conditions: cryopreserved hepatocytes
Protocol: (§1) NDD-713.HCl and -825.HCl were incubated (0.02, 0.1, or 0.5 μM at 37°C, 120 min) with human (XenoTech, Kansas City, KS, USA) or rat liver microsomes (BD Biosciences, Brea, CA, USA) at 0.4 mg/ml protein concentration. Metabolic reaction was initiated by addition of NADPH-regenerating system or NADPH-regenerating system with uridine diphosphate glucuronic acid. Samples were quenched at time points by acetonitrile addition. Control samples, which contained neither NADPH, nor uridine diphosphate glucuronic acid, were monitored for degradation. Compound concentrations were determined by ultraperformance LC-MS (UPLC-MS) relative to calibration standards that were prepared in quenched liver microsomes and fitted to exponential decay functions to determine first-order rate constants (k) for substrate depletion. These were used to calculate in vitro intrinsic clearance (CLint) values: CLint = k/microsomal protein content (0.4 mg protein/ml). Metabolic stability assays that used rat liver cytosol (BD Biosciences), human cryopreserved hepatocytes, or rat hepatocytes were carried out similarly. Average viable cell concentrations were determined by Trypan Blue exclusion methods (in the absence of test compounds). Studies were carried out by CDCO.

[2] = test system: HR (β1) and HQC (β2) in conscious rats; assay: In vivo β1- vs. β2-selectivity, oral administration, conscious rats (isoprenaline responses); design: species or system rat; conditions: for Effect on basal and isoprenaline-stimulated HR after oral gavage: lightly sedated rats dosed by oral gavage, measured once fully recovered
Protocol: Adult male Sprague-Dawley rats, weighing 300−400 g, were chronically instrumented with pulsed Doppler flow probes and intravascular catheters for cardiovascular monitoring and drug administration in a 2-stage surgical protocol as described ([51]). Surgery was performed under general anesthesia (fentanyl and medetomidine, 300 μg/kg of each, i.p.), with reversal and postoperative analgesia provided by atipamezole (1 mg/kg, s.c.) and buprenorphine (0.02 mg/kg, s.c.). Experiments were performed with animals that were fully conscious and unrestrained in home cages and given free access to food and water. Cardiovascular variables were recorded by using a customized, computer-based system (Instrument Development Engineering Evaluation, Maastrich Instruments Bv, Maastrich, The Netherlands) with raw data sampled every 2 ms. Hindquarters vascular conductance (HQC) was calculated as Doppler shift (flow)/mean arterial pressure.
Experiments ran over 3 consecutive days. Lightly sedated rats (propofol at 0.1–0.2 ml of 10 mg/ml, i.v.) that were instrumented for cardiovascular monitoring were administered an oral dose of NDD-825.HCl (1 mg/kg on d 1, 3 mg/kg on d 2, 10 mg/kg on d 3; 10 ml/kg in water) by oral gavage. Each day, responses to isoprenaline infusions were monitored before and at 0.5–1.5 and 3–4 h after oral NDD-825.HCl administration.
Isoprenaline responses shown are absolute values for HR and HQC before the first dose of isoprenaline (baseline) and during the third minute of infusion of each dose. Values at baseline and during the highest isoprenaline dose were tested for statistical significance by using a nonparametric ANOVA test with correction for repeat measures [Quade test ([52])]. A value of P < 0.05 was taken as significant.

[3] = test system: Salmonella typhimurium strains TA98, TA100, TA1535, and TA1537; conditions: concentrations of ≤10 μM, with or without rat liver S9
Protocol: Ames fluctuation assays were performed by using Salmonella typhimurium strains TA98, TA100, TA1535, and TA1537 to detect frame-shifts and base substitutions that led to missense mutations in liquid culture in 384-well plates. Bacterial plates were incubated with serially diluted NDD-713 and -825 solutions for 96 h, and bacterial growth was measured spectrophotometrically by using a pH color-change indicator in response to bacterial growth acidification. Assays were conducted with or without metabolic activation via addition of rat liver S9 fraction. Bacteriocidal or bacteriostatic effects were assessed by using a bacterial cytotoxicity assay that was conducted in parallel with Ames fluctuation assays. Reference compounds were 2-aminoanthracene, 9-aminoacridine, quercetin, streptozotocin (genotoxicity), and mitomycin C (bacterial cytotoxicity). Study was carried out by Cerep (Celle L’Evescault, France).

[4] = Metabolic stability, human liver microsomes; assay type: in vitro ADME; conditions: in the presence of NAD+, NADPH, or in the absence of cofactors
Protocol: as §1

CYP2C19 = molecular target: T1, CYP2C19 (Homo sapiens, UniProt P33261); assay: P450 inhibition in human liver microsomes; assay type: in vitro ADME; conditions: 0.25–20 μM, hydrochloride salts used
T1 construct: in human liver microsomes; tissue batch 0910251; host or cells: human liver microsomes
Protocol: (§2) Concentrations of NDD-713.HCl and -825.HCl (0.25–20 μM) were incubated in triplicate (37°C for 4–40 min) with substrates specific for individual P450 isoforms (see Supplemental Data for full details) in human liver microsomes (batch 34689 for CYP1A2 and CYP3A4; batch 0910251 for CYP2C9, CYP2C19, and CYP2D6) at protein concentrations of 0.4 mg/ml (CYP1A2, CYP2C9, CYP2D6 and CYP3A4/5) or 1.0 mg/ml (CYP2C19) and a total organic solvent concentration <1%. Reaction was initiated by addition of NADPH-regenerating system and samples were quenched by addition of ice-cold acetonitrile, which contained 0.15 μg/ml diazepam as an internal standard, before determination of the concentration of specific metabolites by LC-MS. Compound IC50 values (and positive control) for each P450 isoform was assessed according to %reduction in formation of the specific metabolite (maximal metabolite formation occurring in the absence of inhibitor). […] Control samples were included to confirm that the LC-MS assay was not affected by test compounds (and potential metabolites). Studies were carried out by CDCO.

CYP3A4/5 = assay: P450 inhibition in human liver microsomes; assay type: in vitro ADME; conditions: 0.25–20 μM, hydrochloride salts used
Protocol: as §2

CYP2C9 = molecular target: T2, CYP2C9 (Homo sapiens, UniProt P11712); assay: P450 inhibition in human liver microsomes; assay type: in vitro ADME; conditions: 0.25–20 μM, hydrochloride salts used
T2 construct: in human liver microsomes; tissue batch 0910251; host or cells: human liver microsomes
Protocol: as §2

CYP1A2 = molecular target: T3, CYP1A2 (Homo sapiens, UniProt P05177); assay: P450 inhibition in human liver microsomes; assay type: in vitro ADME; conditions: 0.25–20 μM, hydrochloride salts used
T3 construct: in human liver microsomes (batch 34689 for CYP1A2 and CYP3A4; batch 0910251 for CYP2C9, CYP2C19, and CYP2D6); tissue batch 34689; host or cells: human liver microsomes
Protocol: as §2

hERG potassium channel = hERG potassium channel (Homo sapiens, UniProt Q12809); assay: hERG 3H-astemizole radioligand binding; conditions: 10 µM; concentrations >3000-fold β1-AR affinity
[5] = test system: panel of 80 receptors and ion channels; assay: Cerep in vitro receptor selectivity profiling; assay type: binding; conditions: CGP20712A and LK204-545 at 10 μM, NDD-713 at 4.8 μM, NDD-825 at 2.4 μM
Protocol: Ki (inhibition constant) was calculated by using the Cheng-Prusoff equation from the mean of duplicate determinations in cell-based receptor radioligand-binding assays. Cerep in vitro pharmacology profiling service was used (see the Supplemental Data for a list of the assays used).

T3 sequence (P05177 whole entry): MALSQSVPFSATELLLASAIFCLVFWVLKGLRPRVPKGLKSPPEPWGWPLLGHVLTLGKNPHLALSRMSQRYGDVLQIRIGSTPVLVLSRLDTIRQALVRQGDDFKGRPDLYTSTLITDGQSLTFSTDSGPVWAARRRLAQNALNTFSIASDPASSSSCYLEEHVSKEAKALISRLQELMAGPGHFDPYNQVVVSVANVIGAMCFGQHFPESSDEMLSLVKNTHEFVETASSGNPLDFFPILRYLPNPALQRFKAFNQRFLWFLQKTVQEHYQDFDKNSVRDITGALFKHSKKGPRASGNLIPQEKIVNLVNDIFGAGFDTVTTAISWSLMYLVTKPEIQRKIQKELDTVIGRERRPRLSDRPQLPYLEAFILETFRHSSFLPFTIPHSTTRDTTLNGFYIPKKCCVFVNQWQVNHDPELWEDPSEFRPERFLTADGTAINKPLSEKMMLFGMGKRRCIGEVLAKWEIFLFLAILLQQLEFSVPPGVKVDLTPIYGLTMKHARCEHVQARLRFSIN
T1 sequence (P33261 whole entry): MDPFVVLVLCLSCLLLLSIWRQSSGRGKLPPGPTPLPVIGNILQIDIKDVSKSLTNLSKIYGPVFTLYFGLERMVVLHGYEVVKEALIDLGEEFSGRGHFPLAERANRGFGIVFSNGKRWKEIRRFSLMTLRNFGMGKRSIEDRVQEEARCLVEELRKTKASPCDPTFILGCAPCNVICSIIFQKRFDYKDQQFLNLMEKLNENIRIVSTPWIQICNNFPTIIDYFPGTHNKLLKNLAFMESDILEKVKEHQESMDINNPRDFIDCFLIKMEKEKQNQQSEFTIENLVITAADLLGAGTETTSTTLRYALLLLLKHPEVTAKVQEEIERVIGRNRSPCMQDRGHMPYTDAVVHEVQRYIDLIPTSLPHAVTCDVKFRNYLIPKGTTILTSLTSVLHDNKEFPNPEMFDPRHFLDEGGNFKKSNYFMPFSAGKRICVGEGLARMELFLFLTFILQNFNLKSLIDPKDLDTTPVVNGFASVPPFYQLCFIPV
Sequence of hERG potassium channel (Q12809 whole entry): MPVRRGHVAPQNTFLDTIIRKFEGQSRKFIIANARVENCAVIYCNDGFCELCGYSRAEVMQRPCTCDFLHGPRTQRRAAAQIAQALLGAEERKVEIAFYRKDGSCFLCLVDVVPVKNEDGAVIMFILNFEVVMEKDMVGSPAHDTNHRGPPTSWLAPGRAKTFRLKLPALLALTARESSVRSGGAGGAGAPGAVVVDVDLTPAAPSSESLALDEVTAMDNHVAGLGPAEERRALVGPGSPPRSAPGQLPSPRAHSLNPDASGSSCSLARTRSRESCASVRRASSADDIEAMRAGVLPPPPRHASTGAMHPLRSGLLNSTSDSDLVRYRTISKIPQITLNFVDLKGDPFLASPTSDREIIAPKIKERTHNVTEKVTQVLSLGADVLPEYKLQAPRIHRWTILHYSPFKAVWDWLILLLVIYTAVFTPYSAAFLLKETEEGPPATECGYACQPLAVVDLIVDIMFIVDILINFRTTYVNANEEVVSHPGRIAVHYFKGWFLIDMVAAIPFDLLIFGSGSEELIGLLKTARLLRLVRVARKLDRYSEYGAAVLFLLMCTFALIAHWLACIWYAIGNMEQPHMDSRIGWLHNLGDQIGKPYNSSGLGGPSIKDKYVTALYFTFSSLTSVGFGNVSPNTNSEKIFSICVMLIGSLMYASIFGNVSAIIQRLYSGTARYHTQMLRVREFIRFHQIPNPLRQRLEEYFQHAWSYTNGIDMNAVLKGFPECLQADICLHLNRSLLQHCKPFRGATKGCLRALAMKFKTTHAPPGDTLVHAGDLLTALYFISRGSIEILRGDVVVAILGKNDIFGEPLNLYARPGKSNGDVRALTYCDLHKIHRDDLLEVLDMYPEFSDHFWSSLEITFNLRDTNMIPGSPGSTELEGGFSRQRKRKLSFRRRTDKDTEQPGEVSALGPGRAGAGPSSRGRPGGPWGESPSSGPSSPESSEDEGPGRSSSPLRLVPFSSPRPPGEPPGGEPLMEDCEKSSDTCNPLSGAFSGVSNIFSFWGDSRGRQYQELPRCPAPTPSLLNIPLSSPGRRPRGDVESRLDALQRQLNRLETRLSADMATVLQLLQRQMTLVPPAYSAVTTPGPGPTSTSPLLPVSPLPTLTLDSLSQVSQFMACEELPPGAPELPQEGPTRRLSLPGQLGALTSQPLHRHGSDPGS
T2 sequence (P11712 whole entry): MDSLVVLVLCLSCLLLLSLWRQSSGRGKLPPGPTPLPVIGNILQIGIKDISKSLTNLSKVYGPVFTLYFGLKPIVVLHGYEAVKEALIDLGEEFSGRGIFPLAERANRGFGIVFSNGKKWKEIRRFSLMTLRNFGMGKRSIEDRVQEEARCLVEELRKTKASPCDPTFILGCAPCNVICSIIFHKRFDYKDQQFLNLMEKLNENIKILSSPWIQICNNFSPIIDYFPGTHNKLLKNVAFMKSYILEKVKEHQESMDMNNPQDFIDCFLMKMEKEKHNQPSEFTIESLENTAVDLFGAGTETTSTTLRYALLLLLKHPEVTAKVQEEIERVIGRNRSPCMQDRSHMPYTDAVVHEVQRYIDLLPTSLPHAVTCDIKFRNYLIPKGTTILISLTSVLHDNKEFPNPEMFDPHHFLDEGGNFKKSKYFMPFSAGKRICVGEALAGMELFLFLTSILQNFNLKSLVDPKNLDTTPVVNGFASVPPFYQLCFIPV

SMILES	hepatocyte CLint [1] [µL/min/1e6 cells]	Effect on basal HR ([2]; conscious rats, oral gavage 1 mg/kg (d 1), n = 3)	Lowering of basal HR and reduction in isoprenaline-stimulated HR ([2]; conscious rats, oral gavage 3 and 10 mg/kg on subsequent days, compared with 1 mg/kg)	Changes in HQC responses to isoprenaline ([2]; conscious rats, oral gavage, any dose level (1, 3, 10 mg/kg))	Effect on basal and isoprenaline-stimulated HR after oral gavage [2]	Genotoxicity in Ames tests [3]	microsomal CLint [4] [µL/min/mg]	IC50 (CYP2C19) [µM]	IC50 (CYP3A4/5) [µM]	IC50 (CYP2C9) [µM]	IC50 (CYP1A2) [µM]	Affinity for the hERG channel (hERG potassium channel)	Off-target binding in receptor and ion channel panel [5]
O=C1NCc2cc(OCCNC[C@H](O)COc3ccc4c(c3)OC[C@@H](COCC3CC3)O4)ccc21 [NDD-825]	6	small but significant lowering of basal HR	more pronounced	No significant changes	caused a reduction of basal and isoprenaline-stimulated HR	Neither compound displayed genotoxicity	< 0.16	> 20	> 20	> 20	> 20	no affinity for the hERG channel	poor affinity for most other GPCRs and ion channels
NC(=O)c1ccc(OCCNC[C@H](O)COc2ccc3c(c2)OC[C@@H](COCC2CC2)O3)cc1 [NDD-713]	< 6				caused a reduction of basal and isoprenaline-stimulated HR	Neither compound displayed genotoxicity	< 0.16	> 20	> 20	> 20	> 20	no affinity for the hERG channel	poor affinity for most other GPCRs and ion channels
